# Reference: patent US20210121419A1, “METFORMIN COMPOUNDED COMPOSITION AND METHOD THEREOF” (ZHOUSHAN TRITECH BIOSCIENCES, INC., priority 2018, published 2021)
# Tested on: enteric microorganism
# Assay: Low dose metformin usage in a large population
# Type: in vivo, human
# Conditions: low dose 0.125-0.25 g/day
# Description: One of the new discoveries of the present disclosure is the important health effect of low dose metformin. The normal dosage of metformin in Chinese population is 1-2 g per day, and the dose for the anti-aging clinical trial in the US is 1.7 g per day. It is known that one of the functions of metformin in regulating human health is through regulating enteric microorganism, whereas an unexpected discovery of the present disclosure is that low dose metformin (0.1-0.5 g/day, prefer for 0.125-0.25 g/day) can also promote health through regulating enteric microorganism. The application of low dose metformin can avoid long-term application caused side effects such as hypoglycemia, lactic acidosis, and hepatic and renal toxicity when normal dosage is used.
smiles,measurement,setting,value
"CN(C)C(=N)N=C(N)N [metformin, 1,1-Dimethylbiguanide]",time until stool returned to normal,,4 to 5 days
same,stool effect,2-3 days after usage,mild diarrhea
